Source: paper PMC10590419, “Structural and mechanistic insights into the inhibition of respiratory syncytial virus polymerase by a non-nucleoside inhibitor” (Communications Biology, 2023)
Where “and” joins values, the source holds several entries; their conditions need not be identical. Identical values can stand only once. Like-named read-outs stand apart in the source and are kept apart here.

Key:
[1] = tested on: HMPV (recombinant CAN97-83-derived strain encoding GFP); assay: microbe, parasite or virus in culture; format: cell-based; conditions: human metapneumovirus, LLC-MK2
[2] = molecular target: RSV L+P complex (Human respiratory syncytial virus A, UniProt P28887); assay: Surface plasmon resonance assay; format: binding, Human RSV (strain A2); conditions: SPR, 37°C
Sequence of RSV L+P complex (P03421 whole entry): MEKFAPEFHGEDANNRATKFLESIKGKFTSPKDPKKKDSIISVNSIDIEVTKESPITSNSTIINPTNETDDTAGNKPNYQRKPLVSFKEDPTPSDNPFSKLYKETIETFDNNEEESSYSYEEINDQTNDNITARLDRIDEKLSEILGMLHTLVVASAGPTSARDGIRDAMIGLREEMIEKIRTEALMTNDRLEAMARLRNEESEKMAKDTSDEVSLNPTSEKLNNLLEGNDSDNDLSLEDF
Sequence of RSV L+P complex (P28887 whole entry): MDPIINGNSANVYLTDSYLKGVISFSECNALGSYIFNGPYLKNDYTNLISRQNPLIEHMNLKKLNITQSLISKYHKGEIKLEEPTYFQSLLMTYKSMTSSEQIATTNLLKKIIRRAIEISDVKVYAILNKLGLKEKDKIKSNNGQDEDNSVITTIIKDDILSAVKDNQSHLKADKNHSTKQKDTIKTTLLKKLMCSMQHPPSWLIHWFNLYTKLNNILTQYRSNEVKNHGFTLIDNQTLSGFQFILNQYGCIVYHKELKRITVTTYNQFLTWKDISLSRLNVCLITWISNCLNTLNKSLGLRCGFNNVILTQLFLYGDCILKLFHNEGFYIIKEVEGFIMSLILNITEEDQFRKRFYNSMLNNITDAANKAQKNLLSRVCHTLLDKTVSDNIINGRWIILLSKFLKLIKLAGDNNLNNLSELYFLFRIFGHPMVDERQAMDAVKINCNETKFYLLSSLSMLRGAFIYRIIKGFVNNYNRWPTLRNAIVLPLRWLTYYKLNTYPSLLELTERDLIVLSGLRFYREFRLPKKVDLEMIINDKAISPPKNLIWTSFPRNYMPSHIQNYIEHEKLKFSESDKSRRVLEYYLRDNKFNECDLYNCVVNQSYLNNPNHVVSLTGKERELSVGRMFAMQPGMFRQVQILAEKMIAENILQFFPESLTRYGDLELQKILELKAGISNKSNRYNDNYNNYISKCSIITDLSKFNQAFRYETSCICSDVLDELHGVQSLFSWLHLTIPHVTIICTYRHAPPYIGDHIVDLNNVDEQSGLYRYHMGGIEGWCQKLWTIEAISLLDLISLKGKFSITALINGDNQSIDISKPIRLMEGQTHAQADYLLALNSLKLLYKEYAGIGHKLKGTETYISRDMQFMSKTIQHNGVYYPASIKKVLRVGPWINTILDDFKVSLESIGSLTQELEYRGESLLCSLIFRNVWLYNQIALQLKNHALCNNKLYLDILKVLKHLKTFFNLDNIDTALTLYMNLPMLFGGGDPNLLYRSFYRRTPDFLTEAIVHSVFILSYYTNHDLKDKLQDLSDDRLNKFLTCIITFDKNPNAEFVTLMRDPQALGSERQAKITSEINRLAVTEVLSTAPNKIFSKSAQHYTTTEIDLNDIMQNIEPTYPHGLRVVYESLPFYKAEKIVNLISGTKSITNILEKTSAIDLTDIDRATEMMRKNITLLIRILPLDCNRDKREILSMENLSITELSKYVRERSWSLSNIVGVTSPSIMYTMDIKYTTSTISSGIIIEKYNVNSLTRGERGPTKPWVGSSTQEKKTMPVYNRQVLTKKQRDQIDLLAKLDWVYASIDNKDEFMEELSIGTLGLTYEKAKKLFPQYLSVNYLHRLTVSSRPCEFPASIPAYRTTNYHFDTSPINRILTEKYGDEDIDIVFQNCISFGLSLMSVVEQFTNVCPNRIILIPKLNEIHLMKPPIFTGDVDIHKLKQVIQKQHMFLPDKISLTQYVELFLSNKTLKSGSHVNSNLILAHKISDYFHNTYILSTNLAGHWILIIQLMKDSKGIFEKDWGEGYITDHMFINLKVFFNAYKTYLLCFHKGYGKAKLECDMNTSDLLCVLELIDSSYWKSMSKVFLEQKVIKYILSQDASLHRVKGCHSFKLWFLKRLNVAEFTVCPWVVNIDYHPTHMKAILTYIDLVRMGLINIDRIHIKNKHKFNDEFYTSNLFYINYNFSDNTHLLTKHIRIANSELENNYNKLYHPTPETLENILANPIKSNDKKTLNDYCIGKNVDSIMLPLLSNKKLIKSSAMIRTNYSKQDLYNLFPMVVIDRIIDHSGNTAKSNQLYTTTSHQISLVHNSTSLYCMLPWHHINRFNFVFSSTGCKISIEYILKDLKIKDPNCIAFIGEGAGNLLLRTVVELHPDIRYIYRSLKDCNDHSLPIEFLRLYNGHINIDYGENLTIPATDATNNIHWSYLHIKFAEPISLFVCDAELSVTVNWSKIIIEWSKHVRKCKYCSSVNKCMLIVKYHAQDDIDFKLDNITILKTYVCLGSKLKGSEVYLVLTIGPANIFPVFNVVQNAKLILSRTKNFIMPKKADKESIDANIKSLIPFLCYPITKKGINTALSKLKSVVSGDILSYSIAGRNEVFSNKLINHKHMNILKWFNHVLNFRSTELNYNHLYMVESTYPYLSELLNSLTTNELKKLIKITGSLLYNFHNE

[3] = molecular target: human mitochondrial RNA polymerase (POLRMT) (Homo sapiens, UniProt O00411); assay: Mitochondrial RNA polymerase DdRp activity; format: biochemical
Procedure: to the method described previously 1. A 25 nM solution of RSV MTase-CTD protein or RSV L+P complex was incubated with 0.7 µM or 1.8 µM purified synthetic RNA 5’-Gppp […]
[…] (RSV9) for the MTase-CTD or L+P complex, respectively; 2 µM or 0.17 µM S-adenosyl methionine (SAM) for the MTase-CTD or L–P complex, respectively; and 0.1 µM or 0.8 µM 3H-SAM (Perkin Elmer) for the MTase-CTD or L–P complex, respectively; in 50 mM Tris-HCl pH 8.0. Compounds, previously dissolved in DMSO were added at a final concentration of 50 µM or 200 µM. After 3 h incubation at 30°C, reactions were quenched by a 20-fold dilution in ice cold water. […] They were then soaked with scintillation fluid (Perkin Elmer), and 3H-methyl transfer to the RNA substrates was determined using a Wallac MicroBeta TriLux Liquid Scintillation Counter. […]
Human DNA polymerases alpha (CHIMERx) at 5 U/ml, beta (CHIMERx) at 0.5 U/ml and gamma (Abcam) at 0.1 mg/ml were incubated with the tested inhibitors at specified concentrations, and a reaction mix composed of 62 µg/ml activated calf thymus DNA, dGTP (2 µM), dATP (2 µM), dCTP (2 µM), [ 3H]dTTP (0.05 µCi/µl), 0.1 mg/ml BSA and a buffer composed of Tris-HCl pH 8 (50 mM), MgCl 2 (5 mM), KCl (60 mM), and DTT (4 mM.) in a total volume of 50 µl. […] Radioactivity was measured via liquid scintillation counting (MicroScint-20, 40µl) on a TriLux apparatus. […]

[4] = molecular target: RSV L+P RdRp (Human respiratory syncytial virus A, UniProt P28887); assay: Biotinylated primer extension Flashplate assay, recombinant RSV L+P; format: biochemical, Human RSV (strain A2)
Sequence of RSV L+P RdRp (P03421 whole entry): as the sequence (P03421 whole entry) above
Sequence of RSV L+P RdRp (P28887 whole entry): as the sequence (P28887 whole entry) above
Procedure: RNA polymerase reaction samples consisted of recombinant RSV L-P polymerase (3 nM) in a buffer containing Tris pH 7.5 (20 mM), KCl (10 mM), dithiothreitol (2 mM), Triton (0.01%), DMSO (10% v/v) with compound at appropriate dilution (10 points 1:5-fold serial dilution starting at 1 µM), and MgCl2 (6 mM). Reactions were started at 30 °C by adding an oligonucleotide template sequence derived from the RSV leader promoter (5’-[…]-3’, 0.2 μM) together with a biotinylated primer (5’-bi-ACGC, 4 μM) mixed with GTP (10 µM), ATP (10 µM) and [α-^33P]CTP (0.025 µM, 3000 Ci/mmol) in a final volume of 10 μL. Reactions were stopped after 120 min by the addition of 90 µl EDTA (0.1 M). Samples were transferred to Flashplates and left 1 h at room temperature for incubation before being washed twice with 0.1% Tween 20, sealed (Topseal) and read on a Wallac MicroBeta TriLux Liquid Scintillation Counter.

SMILES: COc1cc(C(=O)NC[C@](O)(c2cc(C(C)(C)O)c(F)c(-c3ccc(F)cc3)n2)C(F)(F)F)cc2cc(C)nnc12 [JNJ-8003]
- EC50 [1]: 88 nM
- off-rate [2]: 0.0000181 s⁻¹
- on-rate [2]: 2.16e+06 M⁻¹ s⁻¹
- IC50 [3]: > 100000 nM
- IC50 ([4]; RSV L+P RdRp primer extension, n 18, read-out: Median IC50): 0.73 nM
- IC50 ([4]; RdRp activity, Flashplate (Fig. 1c), read-out: IC50): 0.67 nM
- inhibition at 0.00032 µM ([4]; [JNJ-8003] 0.00032 uM, replicates 1-4): 28.6%
- % inhibition ([4]; [JNJ-8003] 0.00032 uM, replicates 1-4, 0.00032 µM): 26.2934% and 27.7635% and 40.6870%
- inhibition at 0.0016 µM ([4]; [JNJ-8003] 0.0016 uM, replicates 1-4): 55.8%
- % inhibition ([4]; [JNJ-8003] 0.0016 uM, replicates 1-4, 0.0016 µM): 60.6805% and 64.1654% and 73.5323%
- inhibition at 0.008 µM ([4]; [JNJ-8003] 0.008 uM, replicates 1-4): 81.4%
- % inhibition ([4]; [JNJ-8003] 0.008 uM, replicates 1-4, 0.008 µM): 89.6905% and 92.3440% and 94.9354%
- inhibition at 0.04 µM ([4]; [JNJ-8003] 0.04 uM, replicates 1-4): 93%
- % inhibition ([4]; [JNJ-8003] 0.04 uM, replicates 1-4, 0.04 µM): 96.5839% and 97.2066% and 98.2976%
- inhibition at 0.2 µM ([4]; [JNJ-8003] 0.2 uM, replicates 1-4): 95.2%
- % inhibition ([4]; [JNJ-8003] 0.2 uM, replicates 1-4, 0.2 µM): 96.5743% and 98.0014% and 97.9026%
